Measured values as given in patent publication US7705004B2, “Protein kinase inhibitors” (Portola Pharmaceuticals, Inc., priority 2007, dated 2010).

Legend:
Format in all cases: cell-based
[1] = test system: IL-4 induced STAT-6 phosphorylation (JAK1/JAK3) in Ramos B-cells; assay: JAK3/STAT6 cellular assay: IL-4 induced STAT-6 phosphorylation, intracellular flow cytometry; details: Homo sapiens, Ramos B-cells pre-treated 1 hour, IL-4 10 minutes
Excerpt: Similar types of assays can be used to assess JAK kinase inhibitory activity and to determine the degree of selectivity of the particular compound as compared to Syk kinase. One means of assaying for such inhibition is detection of the effect of the compounds of the present invention on the upregulation of downstream gene products. In the Ramos/IL4 assay, B-cells are stimulated with the cytokine Interleukin-4 (IL-4) leading to the activation of the JAK/Stat pathway through phosphorylation of the JAK family kinases, JAK1 and JAK3, which in turn phosphorylate and activate the transcription factor Stat-6. […] To study the effect of inhibitors (e.g., the 2,4-substituted pyrimindinediamine compounds described herein) on the JAK1 and JAK3 kinases, human Ramos B-cells are stimulated with human IL-4. 10′ post-stimulation, cells are subjected to intracellular flow cytometry to measure the extent of STAT-6 phosphorylation. 20 to 24 hours post-stimulation, cells are stained for upregulation of CD23 and analyzed using flow cytometry.
Stimulation of Ramos B-cells by IL-4 leads to signaling through JAK1/JAK3 resulting in phosphorylation of STAT6 (signal transducers and activators of transcription). The effect of compounds on inhibition of JAK3 and/or JAK1 can be assessed by measuring the amount of phosphorylated STAT6. This may be performed by Western blotting and/or intracellular flow cytometry using a specific phospho-STAT6 antibody. Data describing compound inhibition of IL-4 induced STAT-6 phosphorylation (measured by intracellular flow cytometry) for Compound 1-1 (Example 1) is presented in the following table.
For the data in the above Table, Ramos B-cells were pre-treated for 1 hour with increasing concentrations of Compound 1-1, as indicated prior to addition of IL-4. Cells were incubated with IL-4 for 10 minutes, and then subjected to intracellular flow cytometry to measure the percent inhibition of IL-4 induced Stat-6, as shown.

[2] = test system: human platelet-rich plasma (PRP); assay: Convulxin-induced aggregation assay (cuvette light transmittance); details: 125-250 ng/mL Convulxin, read-out: IC50, inhibition of convulxin-induced aggregation of platelet rich plasma
Procedure: For preparation of human platelet-rich plasma (PRP) for aggregation assays, human venous blood was collected from healthy, drug-free volunteers into 0.38% sodium citrate (0.013 M, pH 7.0 final). PRP was prepared by centrifugation of whole blood at 160×g for 20 minutes at room temperature. The PRP layer was removed, transferred to a new tube, and the platelet count was adjusted, if necessary, to achieve a platelet concentration of ˜3×10^8 platelets/mL using platelet-poor plasma (PPP). PPP was prepared by centrifugation of the remaining blood sample (after removal of PRP) for 20 minutes at 800×g. This preparation of PRP may be subsequently used for aggregation assays in either a 96-well plate or standard cuvette aggregometry.
Inhibition of Convulxin-induced aggregation was determined by cuvette light transmittance aggregation assays. Serial dilutions (1:2) of test compounds were prepared in 30% DMSO in a 96-well V-bottom plate (final DMSO concentration in the cuvette was 0.3%). The test compound (5 μl of serial dilutions in DMSO) was preincubated with PRP for 20 minutes prior to initiation of the aggregation reactions, which were performed in a ChronoLog aggregometer by addition of agonist (125-250 ng/mL Convulxin) to 495 μL of PRP at 37° C. The aggregation reaction was recorded for 4 minutes, and the maximum extent of aggregation was determined by the difference in extent of aggregation at baseline, compared to the maximum aggregation that occurred during the 4 minute period of the assay. Inhibition of aggregation was calculated as the maximum aggregation observed in the presence of inhibitor, compared to that in the absence of inhibitor. IC50s were derived by non-linear regression analysis.

human washed platelets = assay: Inhibition of Convulxin-mediated platelet calcium mobilization in vitro; details: 125 ng/mL Convulxin
Procedure: Inhibition of Convulxin-induced calcium mobilization was determined in human washed platelets using the FLIPR Calcium 3 Assay Kit (Molecular Devices, Sunnyvale, Calif.). For preparation of washed platelets, human venous blood was collected from healthy, drug-free volunteers into ACD (85 mM sodium citrate, 111 mM glucose, 71.4 mM citric acid) containing PGI2 (1.25 mL ACD containing 0.2 μM PGI2 final; PGI2 from Sigma, St. Louis, Mo.). Platelet-rich plasma (PRP) was prepared by centrifugation at 160×g for 20 minutes at room temperature. Washed platelets were prepared by centrifuging PRP for 10 minutes at 730×g and resuspending the platelet pellet in CGS (13 mM sodium citrate, 30 mM glucose, 120 mM NaCl; 2 mL CGS/10 mL original blood volume). The wash in CGS was repeated a second time, the platelets were collected by centrifugation at 730 g for 10 minutes and resuspended at a concentration of 3×10^8 platelets/mL in Hepes-Tyrode's buffer (10 mM Hepes, 138 mM NaCl, 5.5 mM glucose, 2.9 mM KCl, 12 mM NaHCO3, pH 7.4). This platelet suspension was allowed to rest for 45 minutes at room temperature before use in calcium mobilization assays.
For 96-well plate calcium-mobilization experiments, equal volumes of 3×10^8 washed platelets/mL were incubated with equal volumes of Calcium-3 Assay Reagent A resuspended in 1× Hank's Balanced Salt Solution, pH 7.4, 20 mM Hepes buffer. The total reaction volume of 0.2 mL/well included 1.5×10^8/mL washed platelet/Calcium-3 Assay reagent A mix, 10 μM Eptifibatide (Millennium Pharmaceuticals Inc, Cambridge, Mass.) and serial dilutions (1:3) of test compounds in 0.75% DMSO. DMSO alone was added to 1 well of each 8 set to allow for a maximal calcium-mobilization reading. After a 20 minute preincubation at room temperature, the 96-well microplate reader was loaded into the FlexStation (Molecular Devices, Sunnyvale, Calif.). The FlexStation experimental conditions for measuring calcium mobilization were set up using SOFTMax Pro. The settings used were as follows: Fluorescence parameters-assay mode: flex, excitation 485 nm, 525 nM with a cut-off of 515 nM; Parameters—PMT sensitivity-6, pipette height 230 μl, read time 2 minutes and 40 seconds, read intervals 2 seconds, temperature-23-25° C. After 18 seconds of baseline reading, calcium mobilization was initiated by the addition of Convulxin to a final concentration of 125 ng/mL. Inhibition of calcium mobilization was calculated as the maximum response observed in the presence of inhibitor, compared to that in the absence of inhibitor. IC50s were then derived by non-linear regression analysis.

Row | Structure (SMILES) | IC50 [2] [µM] | IC50 (human washed platelets) [µM] | also measured
1 | CC(=O)N1CCN(c2ccc(Nc3nc(Nc4ccc5cn[nH]c5c4)c4cc[nH]c4n3)cc2)CC1 [Compound 1-1, 1-(4-(4-(4-(1H-indazol-6-ylamino)-7H-pyrrolo[2,3-d]pyrimidin-2-ylamino)phenyl)piperazin-1-yl)ethanone] | ≤ 50 | < 1 | inhibition at 0.05 µM ([1]; 0.05 μM compound): 0%; inhibition at 0.125 µM ([1]; 0.125 μM compound): 6%; inhibition at 0.25 µM ([1]; 0.25 μM compound): 22%; inhibition at 0.5 µM ([1]; 0.5 μM compound): 33%; inhibition at 1 µM ([1]; 1 μM compound): 41%; inhibition at 2 µM ([1]; 2 μM compound): 49%
2 | c1cc2c(Nc3ccc4cn[nH]c4c3)nc(Nc3ccc(N4CCNCC4)cc3)nc2[nH]1 [Compound 1-2, N4-(1H-indazol-6-yl)-N2-(4-(piperazin-1-yl)phenyl)-7H-pyrrolo[2,3-d]pyrimidine-2,4-diamine] | ≤ 50 | < 1 | 
3 | Cc1n[nH]c2cc(Nc3nc(Nc4ccc(N5CCNCC5)cc4)nc4[nH]ccc34)ccc12 [Compound 2-2, N4-(3-methyl-1H-indazol-6-yl)-N2-(4-(piperazin-1-yl)phenyl)-7H-pyrrolo[2,3-d]pyrimidine-2,4-diamine] | ≤ 50 | < 1 | 
4 | CC1(C)Oc2ccc(Nc3nc(Nc4ccc5c(c4)NC(=O)C(C)(C)O5)c4cc[nH]c4n3)cc2NC1=O [Compound 3-1] |  | < 1 | 
5 | c1cc2c(Nc3ccc4cn[nH]c4c3)nc(Nc3ccc4cn[nH]c4c3)nc2[nH]1 [Compound 4-1, N2,N4-di(1H-indazol-6-yl)-7H-pyrrolo[2,3-d]pyrimidine-2,4-diamine] |  | < 1 | 
6 | CS(=O)(=O)N1CCN(c2ccc(Nc3nc(Nc4ccc5cn[nH]c5c4)c4cc[nH]c4n3)cc2)CC1 [Compound 8-1, N4-(1H-indazol-6-yl)-N2-(4-(4-(methylsulfonyl)piperazin-1-yl)phenyl)-7H-pyrrolo[2,3-d]pyrimidine-2,4-diamine] | ≤ 50 | < 1 | 
7 | CS(=O)(=O)N1CCN(c2ccc(Nc3nc(Nc4ccc5cnn(S(C)(=O)=O)c5c4)c4cc[nH]c4n3)cc2)CC1 [Compound 8-2, N4-(1-(methylsulfonyl)-1H-indazol-6-yl)-N2-(4-(4-(methylsulfonyl)piperazin-1-yl)phenyl)-7H-pyrrolo[2,3-d]pyrimidine-2,4-diamine] | ≤ 50 | < 1 | 
8 | CS(=O)(=O)c1ccc(Nc2nc(Nc3ccc4cn[nH]c4c3)c3cc[nH]c3n2)cc1 [Compound 9-1, N4-(1H-indazol-6-yl)-N2-(4-(methylsulfonyl)phenyl)-7H-pyrrolo[2,3-d]pyrimidine-2,4-diamine] | ≤ 50 | < 1 | 
9 | CC1(C)Oc2ccc(Nc3nc(Nc4ccc5cn[nH]c5c4)nc4[nH]ccc34)cc2NC1=O [Compound 16-1, 6-(2-(1H-indazol-6-ylamino)-7H-pyrrolo[2,3-d]pyrimidin-4-ylamino)-2,2-dimethyl-2H-benzo[b][1,4]oxazin-3(4H)-one] |  | < 1 | 
10 | Cn1ncc2ccc(Nc3nc(Nc4ccc(N5CCNCC5)cc4)nc4[nH]ccc34)cc21 [Compound 22-1, N4-(1-methyl-1H-indazol-6-yl)-N2-(4-(piperazin-1-yl)phenyl)-7H-pyrrolo[2,3-d]pyrimidine-2,4-diamine] | ≤ 50 |  | 
11 | CC(=O)N1CCN(c2ccc(Nc3nc(Nc4ccc5cnn(C)c5c4)c4cc[nH]c4n3)cc2)CC1 [Compound 22-2, 1-(4-(4-(4-(1-methyl-1H-indazol-6-ylamino)-7H-pyrrolo[2,3-d]pyrimidin-2-ylamino)phenyl)piperazin-1-yl)ethanone] | ≤ 50 |  | 
12 | Cn1ncc2cc(Nc3nc(Nc4ccc(C(N)=O)cc4)nc4[nH]ccc34)ccc21 [Compound 25-1, 4-(4-(1-methyl-1H-indazol-5-ylamino)-7H-pyrrolo[2,3-d]pyrimidin-2-ylamino)benzamide] | ≤ 50 |  | 
